The structures appear in SMILES notation.

Series [1] can be described thus: In vitro stability in liver microsome. The following applies: human liver microsome 0.5 mg/mL, NADPH, 37° C. In kind it is in vitro ADME. Here is the method: Liver microsome incubation samples (species: human, monkey, rat, and mouse) were prepared by mixing a PBS buffer (pH=7.4), a liver microsome solution (0.5 mg/mL), a test compound, and an NADPH+MgCl2 solution and incubated at 37° C. and 300 rpm for 1 h. Zero-hour samples were prepared by mixing a PBS buffer (pH=7.4), a liver microsome solution (0.5 mg/mL), and a test compound. An acetonitrile solution containing an internal standard was added to the samples, and supernatants were prepared by protein precipitation, diluted, and then assayed by LC/MS/MS.

The subject of a further series is VCaP cells. In words: Assay on inhibitory activity for VCaP cell proliferation (CCK-8). It counts as cell-based. The following applies: Homo sapiens, 168 h incubation. Summed up: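 VCaP cells seeded at 1×10^5 cells/mL in phenol red-free DMEM with 5% charcoal-stripped FBS, treated in duplicate at 10000–0.61 nM final. After 168 h incubation, viability was read with CCK-8.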

A further series concerns the target T1, AR in LNCaP cells (Homo sapiens, UniProt P10275, T878A).
T1 construct: Assay on Degradation Activity for AR in LNCaP Cells; endogenous in cells; host or cells: LNCaP cells
T1 sequence (P10275 1-920 T878A): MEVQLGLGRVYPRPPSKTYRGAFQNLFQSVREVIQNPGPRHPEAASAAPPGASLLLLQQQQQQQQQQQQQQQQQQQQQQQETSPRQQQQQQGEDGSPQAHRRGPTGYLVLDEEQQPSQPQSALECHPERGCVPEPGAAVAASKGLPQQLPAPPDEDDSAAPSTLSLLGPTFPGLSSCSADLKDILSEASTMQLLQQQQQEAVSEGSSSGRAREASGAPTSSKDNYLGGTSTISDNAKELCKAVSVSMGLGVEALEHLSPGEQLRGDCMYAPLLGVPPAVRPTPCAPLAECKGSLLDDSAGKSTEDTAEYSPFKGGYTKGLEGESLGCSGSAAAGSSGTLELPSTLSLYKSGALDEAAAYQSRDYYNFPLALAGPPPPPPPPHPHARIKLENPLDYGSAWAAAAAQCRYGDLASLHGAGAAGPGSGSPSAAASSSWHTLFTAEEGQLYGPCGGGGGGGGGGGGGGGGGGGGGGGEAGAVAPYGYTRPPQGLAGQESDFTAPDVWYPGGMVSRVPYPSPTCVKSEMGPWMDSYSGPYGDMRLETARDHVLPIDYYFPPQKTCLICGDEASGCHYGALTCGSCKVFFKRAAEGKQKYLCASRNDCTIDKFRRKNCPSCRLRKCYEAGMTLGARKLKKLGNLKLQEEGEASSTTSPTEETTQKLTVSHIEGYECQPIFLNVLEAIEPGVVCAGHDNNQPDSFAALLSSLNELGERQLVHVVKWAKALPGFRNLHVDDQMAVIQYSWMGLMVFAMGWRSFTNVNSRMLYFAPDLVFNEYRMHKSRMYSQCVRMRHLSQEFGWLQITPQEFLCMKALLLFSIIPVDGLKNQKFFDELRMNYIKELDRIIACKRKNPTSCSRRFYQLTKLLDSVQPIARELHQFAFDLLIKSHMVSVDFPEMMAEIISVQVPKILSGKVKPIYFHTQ
In words: Assay on degradation activity for AR in LNCaP cells (HTRF human androgen receptor detection kit). In kind it is cell-based. The following applies: 24 h incubation. Summed up:
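LNCaP cells seeded in 2% CSS-FBS phenol red-free 1640 medium overnight, then treated in duplicate with 500 nM–0.488 nM compound for 24 h. AR in lysates quantified by HTRF (Eu cryptate/d2 antibodies, 2 h, 25 °C, 665/620 nm); DC50 and Dmax from four-parameter fits.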
Background: TR-FRET usually uses a lanthanide donor and a delayed reading to cut background.

The next series relates to LNCaP cells. The series is described as follows: Assay on inhibitory activity for LNCaP cell proliferation (CCK-8). In kind it is cell-based. The settings on record: Homo sapiens, 168 h incubation. Summed up: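 Cells seeded at 1×10^5 cells/mL in phenol red-free 1640 with 2% CSS-FBS, treated at final 10000 nM-0.61 nM in duplicate. After 168 h incubation, viability read with CCK-8.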

Regarding `N#Cc1ccc(O[C@H]2CC[C@H](NC(=O)c3ccc(C4CCN(C5CN(c6cc7onc(C8CCC(=O)NC8=O)c7c7ccccc67)C5)CC4)nn3)CC2)cc1Cl` (some centres unmarked) [Compound 48], the “Human liver microsome Residuals at 60 min (%)” value in series [1] is greater than 85%. Further, the 50% inhibitory concentration (IC50) (commonly the point on the concentration scale where inhibition reaches its midpoint) with VCaP cells is less than 100 nM; in the series on LNCaP cells, less than 1000 nM. Moreover, the DC50 (usually the concentration at which degradation of the target reaches its halfway point) on AR in LNCaP cells (HTRF) was no more than 20 nM. The Dmax (as a rule, the largest share of the target that was removed) on AR in LNCaP cells (maximum degradation rate) was greater than 80%.

The record behind these values is US20260035384A1, “COMPOUND CONTAINING CYCLOHEXYL” (CHIA TAI TIANQING PHARMACEUTICAL GROUP CO., LTD., priority 2022, published 2026).
